The record followed here is patent US5622947A, “Benzoheterocyclic compounds and vasopressin antagonist and oxytocin antagonist compositions containing a benzoheterocyclic compound” (Otsuka Pharmaceutical Co., Ltd., priority 1992, dated 1997).

The target in assay [1] is T1, V2 Recepter (rat kidney plasma membrane preparations) (Rattus norvegicus, UniProt Q00788).
T1 construct: rat kidney plasma membrane preparations; from tissue; host or cells: rat kidney plasma membranes
The assay can be described thus: V2 Recepter binding assay. Particulars: [3H]-Arg-vasopressin 4×10^-10 M, 4° C., pH 8.0, rat kidney plasma membrane. On the procedure: Test 2: V2 Recepter binding assay
By using rat kidney plasma membrane preparations prepared according to Hechter's method [by O. Hechter: J. Bio. Chem., 2.53, 3211 (1978)], the plasma membrane (100,000 dpm, 4×10^-10 M) of [^3 H]-Arg-vasopressin and a test compound (0.6 mg, 10^-10 to 10^-5 M) were incubated at 4° C. for 3 hours in 250 μl (in total volume) of 100 mM Tris-HCl buffer (pH=8.0), containing, 5 mM MgCl2, 1 mM EDTA and 0.1% BSA. After the incubation, the mixture, the mixture was filtered by using a glass filter (GF/F) so as to separate the membrane preparation combining with vasopressin, then washed twice with the buffer (5 ml). This glass filter was taken out and mixed with liquid scintillation cocktail. The amount of [^3 H]-vasopressin combining with the membrane was measured by a liquid scintillation counter and the rate of inhibitory effect of the test compound was calculated according to the following equation: Rate of the inhibitory
C1 : the amount of [^3 H]-vasopressin combining with the membrane in the presence of the testcompound of a known amount,
C0 : the amount of [^3 H]-vasopressin combining with the membrane in the absence of the test compound,
B1 : the amount of [^3 H]-vasopressin combining with the mebrane in the presence of the excess amount of vasopressin (10^-6 M).
The results are expressed as IC50 value, which is the concentration of the test compound required to achieve the inhibitory effect in the rate of 50%, and are shown in the following Table 157.

Assay [2] addresses T2, Oxytocin receptor (uterin muscle membrane preparation) (Rattus norvegicus, UniProt P70536).
T2 construct: was homogenized, which was used as a membrane; from tissue; host or cells: uterine muscle membranes from diethylstilbestrol-treated animals
T2 sequence (P70536 1-388): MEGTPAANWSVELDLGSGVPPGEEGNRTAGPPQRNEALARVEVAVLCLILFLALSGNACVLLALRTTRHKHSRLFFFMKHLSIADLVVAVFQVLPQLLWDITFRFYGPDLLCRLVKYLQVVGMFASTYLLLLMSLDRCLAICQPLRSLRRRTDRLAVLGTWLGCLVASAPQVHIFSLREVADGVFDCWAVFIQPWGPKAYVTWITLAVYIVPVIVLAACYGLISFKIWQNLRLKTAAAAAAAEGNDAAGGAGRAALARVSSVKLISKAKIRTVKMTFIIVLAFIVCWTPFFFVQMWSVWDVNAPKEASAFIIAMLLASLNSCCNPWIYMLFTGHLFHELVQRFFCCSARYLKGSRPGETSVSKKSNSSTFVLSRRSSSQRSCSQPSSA
As to the kind of experiment: Oxytocin receptor binding assay. Conditions: [3H]-oxytocin 10^-9 M, 25°, one hour, pH 8.0, uterin muscle membrane, DES-treated. On the procedure: Test-5 Oxytocin receptor binding assay
In accordance with Chan's method [by W. Y. Chan, et al.: Endocrinology, 126, 2095-2101 (1990)], the uterin muscle benn injected subcutaneously with diethylstilbe-sterol (DES) the day before and was homogenized, which was used as a membrane prepara tion. The membrane preparation (0.2 mg), [^3 H]-oxytocin (100,000 dpm, 10^-9 M), a test compound (10^-9 to 10^-5 M) were incubated at 25°. for one hour in 100 mM Tris-HCl buffer (pH=8.0, 250 μl) containing 5 mM MgCl2, 1 mM EDTA and 0.1% BSA. The mixture was filtered through a glass filter (GF/F) so as to separate the membrane preparation combining with [^3 H]-oxytocin, then, was washed twicw with the buffer (5 ml). The glass filter was put into a vial and mixed with Aquasole (a liquid scintillation cocktail). The amount of [^3 H]-oxytocin combining w ith the membrane was measured by a liquid scintillation counter. The rate of the inhibitory effect of the test compound was calculated according to the equation as follows: […]
C1 : the amount of [^3 H]-oxytocin combining with the membrane in the presence of a test compound (in known amount),
C0 : the amount of [^3 H]-oxytocin combinig with the membrane in the absence of a test compound,
B: the amount of [^3 H]-oxytocin combining with the membrane in the presence of the excess amount of oxytocin (5×10^-6 M).
The results are expressed as IC50 values, which is the concentration of the test compound required to achieve the inhibitory effect in the rate of 50%.

Where a name gives a salt, the structure may show the parent alone.

T1 sequence (Q00788 whole entry): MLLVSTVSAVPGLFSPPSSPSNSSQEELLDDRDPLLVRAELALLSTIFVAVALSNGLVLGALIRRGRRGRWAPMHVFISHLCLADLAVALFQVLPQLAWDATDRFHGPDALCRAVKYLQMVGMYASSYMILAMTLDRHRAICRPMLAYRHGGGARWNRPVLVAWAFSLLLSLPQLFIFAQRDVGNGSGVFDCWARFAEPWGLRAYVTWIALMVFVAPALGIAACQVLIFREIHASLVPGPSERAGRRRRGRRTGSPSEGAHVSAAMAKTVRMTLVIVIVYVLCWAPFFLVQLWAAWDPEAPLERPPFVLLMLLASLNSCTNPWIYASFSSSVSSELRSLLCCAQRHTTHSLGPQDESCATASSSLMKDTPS

With `CC(=O)NC1CCN(CCOC2CCCN(C(=O)c3ccc(NC(=O)c4ccccc4Cl)cc3C)c3ccc(Cl)cc32)CC1` (stereo not drawn) [Example 75, 5-[2-(4-Acetylamino-1-piperidinyl)ethoxy]-7-chloro-1-[2-methyl-4-(2-chlorobenzoylamino)benzoyl]-2,3,4,5-tetrahydro-1H-benzoazepine], the IC50 in assay [1] was determined as 32 nM.
For `CC(=O)NC1CCN(CCC2CCCN(C(=O)c3ccc(NC(=O)c4ccccc4Cl)cc3C)c3ccc(Cl)cc32)CC1` (stereo not drawn) [Example 76, 5-[2-(4-Acetylamino-1-piperidinyl)ethyl]-7-chloro-1-[2-methyl-4-(2-chlorobenzoylamino)benzoyl]-2,3,4,5-tetrahydro-1H-benzoazepine], the IC50 in assay [1] is 14 nM.
Molecule `COc1cc(NC(=O)c2ccccc2C)ccc1C(=O)N1CCC=C(CC(=O)N2CCN(C)CC2)c2cc(F)ccc21` [Example 86, 5-(4-Methyl-1-piperazinyl)carbonylmethyl-7-fluoro-1-[2-methoxy-4-(2-methylbenzoylamino)benzoyl]-2,3,-dihydro-1H-benzoazepine] had an IC50 in assay [1] of 59 nM.
Regarding `Cc1cc(NC(=O)c2ccccc2Cl)ccc1C(=O)N1CCCC(OCCn2cncn2)c2cc(Cl)ccc21` (stereo not drawn) [Example 92], the IC50 in assay [1] was found to be 7.4 nM.
Regarding `Cc1ccccc1C(=O)Nc1ccc(C(=O)N2CCCC(CC(=O)N3CCC(N(C)C)CC3)c3cc(Cl)ccc32)c(C)c1` (stereo not drawn) [Example 118, 5-(4-Dimethylamino-1-piperidinyl)carbonylmethyl-7-chloro-1-[2-methyl-4-(2-methylbenzoylamino)benzoyl]-2,3,4,5-tetrahydro-1H-benzoazepine.cndot.hydrochloride], in assay [2], the IC50 was 3200 nM.
On to `COc1cc(C(=O)N2CCCC(CC(=O)N3CCN(C)CC3)c3cc(Cl)ccc32)ccc1NC(=O)c1ccccc1Br` (stereo not drawn) [Example 119, 5-(4-Methyl-1-piperazinyl)carbonylmethyl-7-chloro-1-[3-methoxy-4-(2-bromobenzoylamino)benzoyl]-2,3,4,5-tetrahydro-1H-benzoazepine], for which the IC50 in assay [2] was found to be 270 nM.
`COc1cc(C(=O)N2CCCC(CC(=O)N(C)C)c3cc(Cl)ccc32)ccc1NC(=O)c1ccccc1Br` (stereo not drawn) [Example 120, 5-Dimethylaminocarbonylmethyl-7-chloro-1-[3-methoxy-4-(2-bromobenzoylamino)benzoyl]-2,3,4,5-tetrahydro-1H-benzoazepine] showed an IC50 in assay [2] of 190 nM.
Same read-out and setting: to `C=CCNCCC1CCCN(C(=O)c2ccc(NC(=O)c3ccccc3Cl)cc2C)c2ccc(Cl)cc21` (stereo not drawn) [Example 121, 5-(2-Allylaminoethyl)-7-chloro-1-[2-methyl-4-(2-chlorobenzoylamino)benzoyl]-2,3,4,5-tetrahydro-1H-benzoazepine] belongs 2300 nM; to `CNC(=O)CC1CCCN(C(=O)c2ccc(NC(=O)c3ccccc3Cl)cc2C)c2ccc(Cl)cc21` (stereo not drawn) [Example 122, 5-Methylaminocarbonylmethyl-7-chloro-1-[2-methyl-4-(2-chlorobenzoylamino)benzoyl]-2,3,4,5-tetrahydro-1H-benzoazepine], 2200 nM.
The molecule `Cc1cc(NC(=O)c2ccccc2Cl)ccc1C(=O)N1CCCC(CC(N)=O)c2cc(Cl)ccc21` (stereo not drawn) [Example 123] showed an IC50 in assay [2] of 2200 nM.
Molecule `Cc1ccccc1C(=O)Nc1ccc(C(=O)N2CCCC(CCN3CCOCC3)c3cc(Cl)ccc32)c(C)c1` (stereo not drawn) [Example 124, 5-Morpholinoethyl-7-chloro-1-[2-methyl-4-(2-methylbenzoylamino)benzoyl]-2,3,4,5-tetrahydro-1H-benzoazepine] yielded an IC50 in assay [2] of 2800 nM.
As for `Cc1ccccc1C(=O)Nc1ccc(C(=O)N2CCCC(CC(N)=O)c3cc(Cl)ccc32)c(Cl)c1` (stereo not drawn) [Example 173, 5-Carbamoylmethyl-7-chloro-1-[2-chloro-4-(2-methylbenzoylamino)benzoyl]-2,3,4,5-tetrahydro-1H-benzoazepine], the IC50 in assay [2] stood at 2190 nM.
For `CC(=O)N1CCN(CCC2CCCN(C(=O)c3ccc(NC(=O)c4ccccc4C)cc3Cl)c3ccc(Cl)cc32)CC1` (stereo not drawn) [Example 174, 5-[2-(4-Acetyl-1-piperazinyl)ethyl]-7-chloro-1-[2-chloro-4-(2-methylbenzoylamino)benzoyl]-2,3,4,5-tetrahydro-1H-benzoazepine], the IC50 in assay [2] turned out to be 1050 nM.
In assay [2], `CCN(CC)CCN(CC)C(=O)CC1CCCN(C(=O)c2ccc(NC(=O)c3ccccc3Cl)cc2OC)c2ccc(Cl)cc21` (stereo not drawn) [Example 175, 5-[N-(2-Diethylaminoethyl)-N-ethylamino]-carbonylmethyl-7-chloro-1-[2-methoxy-4-(2-chlorobenzoylamino)benzoyl]-2,3,4,5-tetrahydro-1H-benzoazepine] returned an IC50 of 13 nM.
On the same count and under the same terms, to `COc1cc(NC(=O)c2ccccc2Cl)ccc1C(=O)N1CCCC(OCCn2cncn2)c2cc(Cl)ccc21` (stereo not drawn) [Example 176, 5-[2-(1,2,4-Triazol-1-yl)ethoxy]-7-chloro-1-[2-methoxy-4-(2-chlorobenzoylamino)benzoyl]-2,3,4,5-tetrahydro-1H-benzoazepine] belongs 387 nM.
Take `COc1cc(NC(=O)c2ccccc2Cl)ccc1C(=O)N1CCCC(OCCNC2CCCC2)c2cc(Cl)ccc21` (stereo not drawn) [Example 177, 5-(2-Cyclopentylaminoethoxy)-7-chloro-1-[2-methoxy-4-(2-chlorobenzoylamino)benzoyl]-2,3,4,5-tetrahydro-1H-benzoazepine]: the IC50 in assay [2] was 258 nM.
Take `CN1CCN(C(=O)CC2CCCN(C(=O)c3ccc(NC(=O)c4ccccc4)cc3)c3ccc(Cl)cc32)CC1` (stereo not drawn) [Example 178, 5-(4-Methyl-1-piperazinyl)carbonylmethyl-7-chloro-1-(4-benzoylaminobenzoyl)-2,3,4,5-tetrahydro-1H-benzoazepine]: the IC50 in assay [2] was 969 nM.
Same read-out and setting: for `COc1cc(NC(=O)c2ccccc2Cl)ccc1C(=O)N1CCC=C(CCN2CCN(C(C)=O)CC2)c2cc(Cl)ccc21` [Example 179, 5-[2-(4-Acetyl-1-piperazinyl)ethyl]-7-chloro-1-[2-methoxy-4-(2-chlorobenzoylamino)benzoyl]-2,3,-dihydro-1H-benzoazepine] the value was 2600 nM; for `COc1cc(NC(=O)c2ccccc2Cl)ccc1C(=O)N1CCCC(OCCN2CCCN(C)CC2)c2cc(Cl)ccc21` (stereo not drawn) [Example 180, 5-[2-(4-Methyl-1-homopiperazinyl)ethoxy]-7-chloro-1-[2-methoxy-4-(2-chlorobenzoylamino)benzoyl]-2,3,4,5-tetrahydro-1H-benzoazepine], 284 nM; for `COc1cc(NC(=O)c2ccccc2Cl)ccc1C(=O)N1CCCC(CC(=O)N2CCN(c3ccccc3Cl)CC2)c2cc(Cl)ccc21` (stereo not drawn) [Example 181], 606 nM.
Same read-out and setting: for `CN(C)C(=O)CC1CCCN(C(=O)c2ccc(NC(=O)c3ccccc3OCCCCNC(C)(C)C)cc2)c2ccc(Cl)cc21` (stereo not drawn) [Example 182] the value was 4710 nM; for `COc1cc(NC(=O)c2cccc3c2OCCC3)ccc1C(=O)N1CCCC(CC(=O)N2CCN(C)CC2)c2cc(Cl)ccc21` (stereo not drawn) [Example 183], 4410 nM; for `CC(=O)NC1CCN(CCCCOc2ccc(Cl)c(C(=O)Nc3ccc(C(=O)N4CCCCc5cc(Cl)ccc54)cc3)c2)CC1` [Example 184], 3670 nM.
With `COc1cc(C(=O)N2CCCC(CC(=O)N3CCCN(C)CC3)c3cc(Cl)ccc32)ccc1NC(=O)c1ccccc1Br` (stereo not drawn) [Example 185], the IC50 in assay [2] was determined as 162 nM.
